Patent US20230027198A1 (The Rockefeller University, priority 2019, published 2023)

biological target: T1, ENL YEATS domain (6×HIS ENL YEATS Domain) binding to H3K9cr peptide (Homo sapiens, UniProt Q03111); test: TR-FRET ENL Screening Assay, FRET Assay Protocol 1; conditions: H3K9cr peptide (aa1-20)
T1 construct: aa1-150; EpiCypher, 15-0069; purchased EpiCypher 15-0069
T1 sequence (Q03111 1-150): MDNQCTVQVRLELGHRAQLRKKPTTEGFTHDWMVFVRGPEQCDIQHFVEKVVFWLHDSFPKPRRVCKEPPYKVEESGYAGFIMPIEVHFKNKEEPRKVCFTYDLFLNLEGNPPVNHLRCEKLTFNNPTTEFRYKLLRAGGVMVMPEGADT
Experimental: Compounds of the invention were dissolved in DMSO at a concentration of 3 mM with subsequent dilutions in assay buffer (50 mM HEPES PH7.0, 150 mM NaCl, 0.05% BSA, 0.2% Pluronic F-127) such that the assay contained 1% DMSO. […] Low control (LC) wells received 5 uL of assay buffer instead of ENL protein. […] Compound concentration response curves were performed in duplicate over the concentration range of 0.15 nM-30 uM. The response at each compound concentration minus the LC value was converted to percent inhibition of the vehicle control group response (HC-LC). The relationship between the % inhibition and the compound concentration was analyzed using a four parameter logistic equation to estimate lower and upper asymptotes, the compound concentration producing 50% inhibition (IC50 value) and the slope at the mid-point location.

| Structure (SMILES) | IC50 [nM] |
| --- | --- |
| C[C@H]1CCCN1Cc1cc2cnc(NC(=O)c3ccc4c(cnn4-c4ccncc4)c3)cc2[nH]1 [Example 37, N-(2-[[(2S)-2-methylpyrrolidin-1-yl]methyl]-1H-pyrrolo[3,2-c]pyridin-6-yl)-1-(pyridin-4-yl) indazole-5-carboxamide] | 239 |
| C[C@H]1CCCN1Cc1cc2cnc(NC(=O)c3ccc4nccnc4c3)cc2[nH]1 [Example 38] | 489 |
| C[C@H]1CCCN1Cc1cc2cnc(NC(=O)c3ccc4nnccc4c3)cc2[nH]1 [Example 39] | 368 |
| C[C@H]1CCCN1Cc1cc2cnc(NC(=O)c3ccc4c(c3)CCCN4C)cc2[nH]1 [Example 40, 1-methyl-N-(2-[[(2S)-2-methylpyrrolidin-1-yl]methyl]-1H-pyrrolo[3,2-c]pyridin-6-yl)-3,4-dihydro-2H-quinoline-6-carboxamide] | 2520 |
| C[C@H]1CCCN1Cc1cc2ncc(NC(=O)c3ccc(-c4cc[nH]n4)cc3F)cc2[nH]1 [Example 41] | 410 |
| C[C@H]1CCCN1Cc1cc2cnc(NC(=O)c3ccc(-c4cc[nH]n4)cc3F)cc2[nH]1 [Example 43, 2-fluoro-N-(2-[[(2S)-2-methylpyrrolidin-1-yl]methyl]-1H-pyrrolo[3,2-c]pyridin-6-yl)-4-(1H-pyrazol-3-yl)benzamide] | 699 |
| COc1cc(C(=O)Nc2cc3[nH]c(CN4CCC[C@@H]4C)cc3cn2)c(F)cc1-c1ccn[nH]1 [Example 44] | 760 |
| C[C@@H]1CCN1Cc1cc2cnc(NC(=O)c3ccc4c(cnn4C)c3)cc2[nH]1 [Example 45, 1-methyl-N-(2-[[(2R)-2-methylazetidin-1-yl]methyl]-1H-pyrrolo[3,2-c]pyridin-6-yl)indazole-5-carboxamide] | 2180 |
| C[C@H]1CCCN1Cc1cc2cnc(NC(=O)c3ccc(-c4cnn(C5CC5)c4)cc3)cc2[nH]1 [Example 49] | 151 |
| C[C@H]1CCCN1Cc1cc2cnc(NC(=O)c3ccc4onc(C5CC5)c4c3)cc2[nH]1 [Example 53, 3-cyclopropyl-N-(2-[[(2S)-2-methylpyrrolidin-1-yl]methyl]-1H-pyrrolo[3,2-c]pyridin-6-yl)-1,2-benzoxazole-5-carboxamide] | 417 |
| C[C@H]1CCCN1Cc1cc2cnc(NC(=O)c3ccc(-n4ccnc4)cc3)cc2[nH]1 [Example 54] | 212 |
| C[C@H]1CCCN1Cc1cc2cnc(NC(=O)c3ccc4nc(N)ccc4c3)cc2[nH]1 [Example 58] | 295 |
| C[C@H]1CCCN1Cc1cc2cnc(NC(=O)c3ccc4nc(N)ncc4c3)cc2[nH]1 [Example 59] | 513 |
| C[C@H]1CCCN1Cc1cc2cnc(NC(=O)c3ccc4c(=O)[nH]ccc4c3)cc2[nH]1 [Example 61] | 325 |
| C[C@H]1CCCN1Cc1cc2cnc(NC(=O)c3nc4ccc(O)cc4[nH]3)cc2[nH]1 [Example 63] | 1960 |
| C[C@H]1CCCN1Cc1cc2cnc(NC(=O)c3nc4cc(N)ccc4[nH]3)cc2[nH]1 [Example 64] | 1350 |
| C[C@H]1CCCN1Cc1cc2cnc(NC(=O)c3ccc4cnccc4c3)cc2[nH]1 [Example 65] | 137 |
| Cc1c[nH]c2cc(C(=O)Nc3cc4[nH]c(CN5CCC[C@@H]5C)cc4cn3)ccc12 [Example 68] | 622 |
| CC1C(=O)Nc2cc(C(=O)Nc3cc4[nH]c(CN5CCC[C@@H]5C)cc4cn3)ccc21 (stereo partly drawn) [Example 69, 3-methyl-N-(2-[[(2S)-2-methylpyrrolidin-1-yl]methyl]-1H-pyrrolo[3,2-c]pyridin-6-yl)-2-oxo-1,3-dihydroindole-6-carboxamide] | 412 |
| COCCn1cc(-c2ccc(C(=O)Nc3cc4[nH]c(CN5CCC[C@@H]5C)cc4cn3)nc2)cn1 [Example 71] | 1040 |
| COCCn1cc(-c2ccc(C(=O)Nc3cc4[nH]c(CN5CCC[C@@H]5C)cc4cn3)c(F)c2)cn1 [Example 72] | 364 |
| C[C@H]1CCCN1Cc1cc2cnc(NC(=O)c3ncc(-c4cn[nH]c4)cc3F)cc2[nH]1 [Example 74] | 1090 |

| Structure (SMILES) | IC50 [nM] |
| --- | --- |
| C[C@H]1CCCN1Cc1cc2cnc(NC(=O)c3ccc(-n4ccnc4)cn3)cc2[nH]1 [Example 75] | 2340 |
| C[C@H]1CCCN1Cc1cc2cnc(NC(=O)c3ccc(-c4c[nH]cn4)cn3)cc2[nH]1 [Example 76] | 1590 |
| C[C@H]1CCCN1Cc1cc2cnc(NC(=O)c3ccc(-c4cn[nH]c4)cn3)cc2[nH]1 [Example 77] | 963 |
| C[C@H]1CCCN1Cc1cc2cnc(NC(=O)c3cc4cnccc4cn3)cc2[nH]1 [Example 78] | 145 |
| C[C@H]1CCCN1Cc1cc2cnc(NC(=O)c3ccc4[nH]nnc4c3)cc2[nH]1 [Example 79] | 511 |
| C[C@H]1CCCN1Cc1cc2cnc(NC(=O)c3ccc(C(=N)N)cc3)cc2[nH]1 [Example 80] | 1900 |
| C[C@H]1CCCN1Cc1cc2cnc(NC(=O)c3ccc(CN)cc3)cc2[nH]1 [Example 81] | 1200 |
| C[C@H]1CCCN1Cc1cc2cnc(NC(=O)c3ccc4c(N)n[nH]c4c3)cc2[nH]1 [Example 83] | 168 |
| C[C@H]1CCCN1Cc1cc2cnc(NC(=O)c3ccc4c(N)nn(C5CC5)c4c3)cc2[nH]1 [Example 84] | 177 |
| CC(=O)Nc1nn(C)c2cc(C(=O)Nc3cc4[nH]c(CN5CCC[C@@H]5C)cc4cn3)ccc12 [Example 87, 3-acetamido-1-methyl-N-(2-[[(2S)-2-methylpyrrolidin-1-yl]methyl]-1H-pyrrolo[3,2-c]pyridin-6-yl)indazole-6-carboxamide] | 330 |
| Cc1n[nH]cc1-c1ccc(C(=O)Nc2cc3[nH]c(CN4CCC[C@@H]4C)cc3cn2)cc1 [Example 89] | 499 |
| C[C@H]1CCCN1Cc1cc2cnc(NC(=O)c3ccc4c(c3)n(C)c(=O)n4C)cc2[nH]1 [Example 90] | 126 |
| C[C@H]1CCCN1Cc1cc2cnc(NC(=O)c3ccc(-n4cnnc4)cc3)cc2[nH]1 [Example 91] | 707 |
| Cc1nn(C2COC2)c2ccc(C(=O)Nc3cc4[nH]c(CN5CCC[C@@H]5C)cc4cn3)cc12 [Example 100] | 214 |
| Cc1nn(C2CS(=O)(=O)C2)c2ccc(C(=O)Nc3cc4[nH]c(CN5CCC[C@@H]5C)cc4cn3)cc12 [Example 101] | 126 |
| Cc1nn(C(F)F)c2ccc(C(=O)Nc3cc4[nH]c(CN5CCC[C@@H]5C)cc4cn3)cc12 [Example 102] | 276 |
| Cc1n[nH]c2cc(F)c(C(=O)Nc3cnc4cc(CN5CCC[C@@H]5C)[nH]c4c3)cc12 [Example 105, 6-fluoro-3-methyl-N-(2-[[(2S)-2-methylpyrrolidin-1-yl]methyl]-1H-pyrrolo[3,2-b]pyridin-6-yl)-1H-indazole-5-carboxamide] | 270 |
| Cc1n[nH]c2ccc(C(=O)Nc3cc4[nH]c(CN5CCC[C@@H]5C)c(F)c4cn3)cc12 [Example 107, N-(3-fluoro-2-[[(2S)-2-methylpyrrolidin-1-yl]methyl]-1H-pyrrolo[3,2-c]pyridin-6-yl)-3-methyl-1H-indazole-5-carboxamide] | 94 |
| Cc1n[nH]c2ccc(C(=O)Nc3cc4[nH]c(CN5CC6(C5)CC(F)(F)C6)cc4cn3)cc12 [Example 109] | 152 |
| C[C@H]1CCCN1Cc1cc2nnc(NC(=O)c3ccc4c(cnn4C)c3)cc2[nH]1 [compound 19] | 200 |
| COCCCCn1ncc2cc(C(=O)Nc3cc4[nH]c(CN5CCC[C@@H]5C)cc4cn3)ccc21 [compound 28] | 416 |
| CC(c1ccc(C(=O)Nc2cc3[nH]c(CN4CCC[C@@H]4C)cc3cn2)cc1)c1cccnc1 (some centres unmarked) [compound 30] | 763 |
